Patent US10577373B2, “TYK2 inhibitors and uses thereof” (Nimbus Lakshmi, Inc., priority 2017, dated 2020)

System: IL-12 induced STAT4 phophorylation mediated by Tyk2/JAK2 (heterodimeric complex)
Experiment: IL-12 Induced pSTAT4 in Human PBMC
Format: cell-based
Details: 1.7 ng/mL IL-12
From the text: The IL-12 Induced pSTAT4 assay evaluates the inhibition of IL-12 induced STAT4 phophorylation mediated by Tyk2/JAK2 (heterodimeric complex).

SMILES	IC50 [µM]
CNc1cc(Nc2cccn([C@H]3CCC[C@@H](O)C3)c2=O)nc2c(C(=O)N[C@H]3CC[C@@H]3OC)cnn12 [I-1296]	< 0.1
CNc1cc(Nc2cccn([C@H]3CCC[C@@H](OC)C3)c2=O)nc2c(C(=O)NCC(C)(C)CO)cnn12 [I-861]	< 0.1
CNc1cc(Nc2cccn3cnnc23)nc2c(C(=O)N[C@H]3CC[C@@H]3OC)cnn12 [I-1343]	< 0.1
CNc1cc(Nc2cccn(-c3nn(C)cc3C)c2=O)nc2c(C(=O)NC3CC3)cnn12 [I-404]	> 1
CNc1cc(Nc2cccn([C@@H]3CCCN(CCF)C3)c2=O)nc2c(C(=O)N[C@H]3CC[C@@H]3OC)cnn12 [I-1382]	< 0.1
CNc1cc(Nc2cccn([C@H]3CCC[C@H](OC)C3)c2=O)nc2c(C(=O)N[C@@H]3CC[C@H]3OC)cnn12 [I-1374]	< 0.1
CNc1cc(Nc2cccn([C@@H]3CC[C@@H]3O)c2=O)nc2c(C(=O)N[C@H]3CC[C@@H]3OC)cnn12 [I-1411]	< 0.1
CNc1cc(Nc2cccn([C@H]3CCN(CCF)C3)c2=O)nc2c(C(=O)N[C@H]3CC[C@@H]3OC)cnn12 [I-1381]	< 0.1
CNc1cc(-c2cn(C3CCOCC3)c3ncccc23)nc2c(C(=O)N[C@@H]3CC[C@H]3OC)cnn12 [I-1328]	< 0.1
CNc1cc(Nc2cccn([C@H]3CCC[C@H]3O)c2=O)nc2c(C(=O)N[C@H]3CC[C@@H]3OC)cnn12 [I-1373]	< 0.1

System: GM-CSF induced STAT5 phosphorylation mediated by the JAK2/JAK2 homdimeric complex
Experiment: GM-CSF Induced pSTAT5 in Human PBMC
Details: Homo sapiens, PBMC, 20 min, read-out: PBMC_GMCSF_pSTAT5 IC50, human PBMC; GM-CSF 5 ng/mL for 20 minutes; pSTAT5
From the text: Human PBMC are isolated from buffy coat and are stored frozen for assays as needed.

SMILES	IC50 [µM]
CNc1cc(Nc2cccn([C@H]3CCC[C@H](OC)C3)c2=O)nc2c(C(=O)N[C@@H]3C[C@@H]3F)cnn12 [I-1042]	> 2.5
CNc1cc(Nc2cccn([C@H]3CCC[C@H]3O)c2=O)nc2c(C(=O)NC3CC3)cnn12 [I-963]	> 50
CNc1cc(Nc2cccn3ccnc23)nc2c(C(=O)N[C@H]3CC[C@@H]3OC)cnn12 [I-1052]	> 50
CNc1cc(Nc2cccn([C@@H]3CCCN(CCF)C3)c2=O)nc2c(C(=O)N[C@@H]3CC[C@H]3OC)cnn12 [I-1095]	> 50
CNc1cc(Nc2cccn([C@@H]3CCN(CCF)C3)c2=O)nc2c(C(=O)NC3CCC3OC)cnn12 (stereo partly drawn) [I-1096, 5-((1-((R)—1-(2-fluoroethyl)pyrrolidin-3-yl)-2-oxo-1,2-dihydropyridin-3-yl)amino)-N-(2-methoxycyclobutyl)-7-(methylamino)pyrazolo[1,5-a]pyrimidine-3-carboxamide]	> 50
CNc1cc(Nc2cccn([C@H]3[C@@H]4COC[C@@H]43)c2=O)nc2c(C(=O)N[C@H]3CC[C@@H]3OC)cnn12 [I-1088]	> 50
CNc1cc(Nc2cccn([C@@H]3CCC[C@@H](O)C3)c2=O)nc2c(C(=O)N[C@@H]3C[C@@H]3F)cnn12 [I-1029]	> 2.5
CNc1cc(Nc2cccn(-c3ncc(C)s3)c2=O)nc2c(C(=O)N[C@@H]3CC[C@H]3O)cnn12 [I-1070]	> 12.5
CNc1cc(Nc2cccn(-c3cccc(F)c3)c2=O)nc2c(C(=O)N[C@H]3CC[C@H]3O)cnn12 [I-1004]	> 12.5
CNc1cc(Nc2cccn([C@H]3CCC[C@H](OC)C3)c2=O)nc2c(C(=O)NCC(C)(C)CO)cnn12 [I-958]	> 50
CNc1cc(Nc2cccn([C@H]3CCCC[C@H]3OC)c2=O)nc2c(C(=O)N[C@H]3CC[C@@H]3OC)cnn12 [I-1097]	> 50
CNc1cc(-c2cn(C(C)C)c3ncc(F)cc23)nc2c(C(=O)N[C@H]3CC[C@@H]3OC)cnn12 [I-1053, 5-(5-fluoro-1-isopropyl-1H-pyrrolo[2,3-b]pyridin-3-yl)-N-((1S,2S)-2-methoxycyclobutyl)-7-(methylamino)pyrazolo[1,5-a]pyrimidine-3-carboxamide]	> 12.5
CNc1cc(Nc2cccn([C@H]3CC[C@@H]3O)c2=O)nc2c(C(=O)N[C@H]3CC[C@@H]3OC)cnn12 [I-1094]	> 50
CNc1cc(Nc2cccn([C@H]3CCC[C@H]3O)c2=O)nc2c(C(=O)N[C@H]3CC[C@@H]3OC)cnn12 [I-1101]	> 50
CNc1cc(Nc2cccn([C@H]3CCC[C@H]3O)c2=O)nc2c(C(=O)N[C@@H]3C[C@@H]3F)cnn12 [I-965]	> 50
CNc1cc(Nc2cccn([C@@H]3CCC[C@@H](OC)C3)c2=O)nc2c(C(=O)N[C@H]3CC[C@@H]3OC)cnn12 [I-1099]	> 50
CNc1cc(Nc2cccn(-c3cnco3)c2=O)nc2c(C(=O)N[C@H]3CC[C@H]3O)cnn12 [I-1017]	> 12.5
CNc1cc(Nc2cccn([C@H]3CCN(CCF)C3)c2=O)nc2c(C(=O)N[C@H]3CC[C@@H]3OC)cnn12 [I-1050, 5-((1-((S)-1-(2-fluoroethyl)pyrrolidin-3-yl)-2-oxo-1,2-dihydropyridin-3-yl)amino)-N-((1 S,2S)-2-methoxycyclobutyl)-7-(methylamino)pyrazolo[1,5-a]pyrimidine-3-carboxamide]	> 50
CNc1cc(Nc2cccn([C@H]3CC[C@](C)(OC)CC3)c2=O)nc2c(C(=O)N[C@H]3CC[C@@H]3OC)cnn12 [I-1105]	> 50
CNc1cc(Nc2cccn(-c3ccccc3F)c2=O)nc2c(C(=O)N[C@H]3CC[C@@H]3O)cnn12 [I-1038]	> 50
CNc1cc(Nc2cccn([C@H]3CCCN(CCF)C3)c2=O)nc2c(C(=O)N[C@@H]3CC[C@H]3OC)cnn12 [I-1059]	> 50
CNc1cc(Nc2cccn([C@H]3CCC[C@H](OC)C3)c2=O)nc2c(C(=O)NCC3(CO)CC3)cnn12 [I-1010]	> 50

SMILES	IC50 [µM]
CNc1cc(Nc2cccn([C@@H]3CC[C@H]3O)c2=O)nc2c(C(=O)N[C@@H]3C[C@@H]3F)cnn12 [I-999]	> 50
CNc1cc(Nc2cccn([C@@H]3CC[C@H]3O)c2=O)nc2c(C(=O)N[C@H]3CC[C@@H]3OC)cnn12 [I-1093]	> 50
CNc1cc(Nc2cccn([C@@H]3CCC[C@@H](OC)C3)c2=O)nc2c(C(=O)NC3CC3)cnn12 [I-957]	> 50
CNc1cc(Nc2cccn([C@H]3CCCC[C@H]3O)c2=O)nc2c(C(=O)NC3CC3)cnn12 [I-878]	> 50
CNc1cc(Nc2cccn([C@H]3CCC[C@H](OC)C3)c2=O)nc2c(C(=O)N[C@H]3CC[C@@H]3OC)cnn12 [I-1098]	> 50
CNc1cc(Nc2cccn([C@H]3CCC[C@H](O)C3)c2=O)nc2c(C(=O)N[C@H]3CC[C@@H]3OC)cnn12 [I-1063]	> 50
CNc1cc(Nc2cccc3ocnc23)nc2c(C(=O)NC3CCC3OC)cnn12 (stereo not shown) [I-1051, 5-(benzo[d]oxazol-4-ylamino)-N-(2-methoxycyclobutyl)-7-(methylamino) pyrazolo[1,5-a]pyrimidine-3-carboxamide]	> 50
CNc1cc(Nc2cccn(-c3ccccc3F)c2=O)nc2c(C(=O)N[C@H]3CC[C@H]3O)cnn12 [I-1035]	> 2.5
CNc1cc(-c2cn(C(C)C)c3ncc(F)cc23)nc2c(C(=O)N[C@H]3CC[C@H]3O)cnn12 [I-1013, 5-(5-fluoro-1-isopropyl-1-pyrrolo[2,3-b]pyridin-3-yl)-N-(2-hydroxycyclobutyl)-7-(methylamino)pyrazolo[1,5-a]pyrimidine-3-carboxamide]	> 12.5
CNc1cc(Nc2cccn(-c3cnn(C)c3F)c2=O)nc2c(C(=O)N[C@H]3CC[C@@H]3OC)cnn12 [I-1066]	> 50
CNc1cc(Nc2cccc(N3CCCC3=O)n2)nc2c(C(=O)N[C@H]3CC[C@H]3O)cnn12 [I-969]	> 50
CNc1cc(Nc2cccn3cnnc23)nc2c(C(=O)N[C@H]3CC[C@@H]3OC)cnn12 [I-1102]	> 2.5
[2H]C([2H])([2H])Oc1ncccc1Nc1cc(NC)n2ncc(C(=O)NC3CC4(COC4)C3)c2n1 [I-417, 5-((2-(methoxy-d3)pyridin-3-yl)amino)-7-(methylamino)-N-(2-oxaspiro[3.3]heptan-6-yl)pyrazolo[1,5-a]pyrimidine-3-carboxamide]	> 50
CNc1cc(Nc2cccn(-c3ccccn3)c2=O)nc2c(C(=O)N[C@H]3CC[C@@H]3O)cnn12 [I-971]	> 50
CNc1cc(Nc2cc(Cl)cn(-c3cnn(C)c3F)c2=O)nc2c(C(=O)NC3CC3)cnn12 [I-955]	> 12.5
CNc1cc(-c2cn(C3CCOCC3)c3ncccc23)nc2c(C(=O)NC3CCC3O)cnn12 (stereo not shown) [I-1048, N-(2-hydroxycyclobutyl)-7-(methylamino)-5-(1-(tetrahydro-2H-pyran-4-yl)-1H-pyrrolo[2,3-b]pyridin-3-yl)pyrazolo[1,5-a]pyrimidine-3-carboxamide]	> 2.5
CNc1cc(Nc2cccn([C@H]3CCC[C@@H](OC)C3)c2=O)nc2c(C(=O)N[C@@H]3CC[C@H]3O)cnn12 [I-993]	> 50
CNc1cc(Nc2cccn([C@@H]3CC[C@H]3OC)c2=O)nc2c(C(=O)N[C@@H]3C[C@@H]3F)cnn12 [I-1022]	> 12.5
CNc1cc(Nc2cccn([C@H]3CCCC[C@H]3O)c2=O)nc2c(C(=O)N[C@@H]3CC[C@H]3OC)cnn12 [I-1057]	> 50
CNc1cc(Nc2cccn([C@H]3CCC[C@H](OC)C3)c2=O)nc2c(C(=O)NC3CC3)cnn12 [I-1025]	> 50
CNc1cc(Nc2cccn([C@H]3CCC[C@@H](OC)C3)c2=O)nc2c(C(=O)N[C@H]3CC[C@@H]3OC)cnn12 [I-996]	> 50
CNc1cc(-c2cn(C3CC3)c3ncccc23)nc2c(C(=O)N[C@H]3CC[C@@H]3OC)cnn12 (stereo in doubt) [I-1067, 5-(1-cyclopropyl-1H-pyrrolo[2,3-b]pyridin-3-yl)-N-(2-methoxycyclobutyl)-7-(methylamino)pyrazolo[1,5-a]pyrimidine-3-carboxamide]	> 12.5

Same assay, conditions: read-out: PBMC_GMCSF_pSTAT5 IC50; human PBMC; GM-CSF 5 ng/mL for 20 minutes; pSTAT5

SMILES	IC50 [µM]
CNc1cc(Nc2cccn([C@H]3CC[C@](C)(OC)CC3)c2=O)nc2c(C(=O)N[C@@H]3CC[C@H]3O)cnn12 [I-1107]	> 2.5
CNc1cc(Nc2cccn([C@H]3CC[C@](C)(OC)CC3)c2=O)nc2c(C(=O)N[C@@H]3CC[C@H]3O)cnn12 [I-962]	> 50
CNc1cc(Nc2cccn(-c3ncc(C)s3)c2=O)nc2c(C(=O)N[C@@H]3CC[C@@H]3O)cnn12 [I-1073]	> 50
CNc1cc(Nc2cccn([C@@H]3CCC[C@H](OC)C3)c2=O)nc2c(C(=O)N[C@@H]3CC[C@H]3OC)cnn12 [I-1082]	> 50
